# Data taken from ChEMBL document CHEMBL1142587, “Rhizochalin A, a novel two-headed sphingolipid from the sponge Rhizochalina incrustata” (J Nat Prod, 2005).
# Test system: Ehrlich
# Assay: Cytotoxicity against mouse Ehrlich cells
# Type: functional, cell-based
smiles,measurement,value
C[C@@H](N)[C@H](O)CCCCCCCC(=O)CCCCCCCCCCCCCC[C@@H](O[C@@H]1O[C@H](CO)[C@H](O)[C@H](O)[C@H]1O)[C@@H](C)N [RHIZOCHALIN],IC50,10 µg/mL
